Results as given in ChEMBL document CHEMBL1157360, “Characterization of an integron carrying blaIMP-1 and a new aminoglycoside resistance gene, aac(6')-31, and its dissemination among genetically unrelated clinical isolates in a Brazilian hospital” (2007).
≈ marks a conversion by molar mass, not a printed value.

Assays:
Type in all cases: functional
Acinetobacter baumannii [1] = assay: Antimicrobial activity against Acinetobacter baumannii 695 isolate harboring bla IMP-1 carrying integron In86 containing aminoglycoside resistance gene aac(6')-3
Acinetobacter sp. [2] = assay: Antimicrobial activity against Acinetobacter sp. 5248 isolate harboring bla IMP-1 carrying integron In86 containing aminoglycoside resistance gene aac(6')-3
Acinetobacter baumannii [3] = assay: Antimicrobial activity against Acinetobacter baumannii 501 isolate harboring bla IMP-1 carrying integron In86 containing aminoglycoside resistance gene aac(6')-3
Acinetobacter baumannii [4] = assay: Antimicrobial activity against Acinetobacter baumannii 9043 isolate harboring bla IMP-1 carrying integron In86 containing aminoglycoside resistance gene aac(6')-3
Acinetobacter baumannii [5] = assay: Antimicrobial activity against Acinetobacter baumannii 696 isolate harboring bla IMP-1 carrying integron In86 containing aminoglycoside resistance gene aac(6')-3
Acinetobacter baumannii [6] = assay: Antimicrobial activity against Acinetobacter baumannii 694 isolate harboring bla IMP-1 carrying integron In86 containing aminoglycoside resistance gene aac(6')-3
Acinetobacter sp. [7] = assay: Antimicrobial activity against Acinetobacter sp. 5227 isolate harboring bla IMP-1 carrying integron In86 containing aminoglycoside resistance gene aac(6')-3
Pseudomonas putida = assay: Antimicrobial activity against Pseudomonas putida 12346 isolate harboring bla IMP-1 carrying integron In86 containing aminoglycoside resistance gene aac(6')-3
Escherichia coli [8] = assay: Antimicrobial activity against Escherichia coli DH5alpha harboring recombinant pIMPAR31
Escherichia coli [9] = assay: Antimicrobial activity against Escherichia coli DH5alpha

Row | Structure (SMILES) | MIC (Acinetobacter baumannii [1]) [mg/L] | MIC (Acinetobacter sp. [2]) [mg/L] | MIC (Acinetobacter baumannii [3]) [mg/L] | MIC (Acinetobacter baumannii [4]) [mg/L] | MIC (Acinetobacter baumannii [5]) [mg/L] | MIC (Acinetobacter baumannii [6]) [mg/L] | MIC (Acinetobacter sp. [7]) [mg/L] | MIC (Pseudomonas putida) [mg/L] | MIC (Escherichia coli [8]) [mg/L] | MIC (Escherichia coli [9]) [mg/L]
1 | CO/N=C(\C(=O)N[C@@H]1C(=O)N2C(C(=O)[O-])=C(C[N+]3(C)CCCC3)CS[C@H]12)c1csc(N)n1 | > 16 | > 16 | > 16 | > 16 | > 16 | > 16 | > 16 | > 16 | – | –
2 | NCC[C@H](O)C(=O)N[C@@H]1C[C@H](N)[C@@H](O[C@H]2O[C@H](CN)[C@@H](O)[C@H](O)[C@H]2O)[C@H](O)[C@H]1O[C@H]1O[C@H](CO)[C@@H](O)[C@H](N)[C@H]1O [AMIKACIN] | 32 (≈ 54.6 µM) | 32 (≈ 54.6 µM) | 32 (≈ 54.6 µM) | > 32 | > 32 | > 32 | > 32 | > 32 | 8 | 0.5 (≈ 0.854 µM)
3 | CC1(C)S[C@@H]2[C@H](NC(=O)[C@H](N)c3ccccc3)C(=O)N2[C@H]1C(=O)O [AMPICILLIN] | > 16 | > 16 | > 16 | > 16 | > 16 | > 16 | > 16 | > 16 | – | –
4 | C[C@H]1[C@H](NC(=O)/C(=N\OC(C)(C)C(=O)O)c2csc(N)n2)C(=O)N1S(=O)(=O)O [AZTREONAM] | > 16 | > 16 | > 16 | > 16 | > 16 | > 16 | > 16 | > 16 | – | –
5 | CC(C)(O/N=C(\C(=O)N[C@@H]1C(=O)N2C(C(=O)[O-])=C(C[n+]3ccccc3)CS[C@H]12)c1csc(N)n1)C(=O)O [CEFTAZIDIME] | > 16 | > 16 | > 16 | > 16 | > 16 | > 16 | > 16 | > 16 | – | –
6 | O=C(O)c1cn(C2CC2)c2cc(N3CCNCC3)c(F)cc2c1=O [CIPROFLOXACIN] | > 4 | > 4 | 0.12 (≈ 0.362 µM) | > 2 | 0.5 (≈ 1.51 µM) | 1 (≈ 3.02 µM) | 2 (≈ 6.04 µM) | > 2 | – | –
7 | COc1c(N2CCNC(C)C2)c(F)cc2c(=O)c(C(=O)O)cn(C3CC3)c12 (stereo not drawn) [GATIFLOXACIN] | 4 (≈ 10.7 µM) | 4 (≈ 10.7 µM) | 0.12 (≈ 0.32 µM) | > 4 | 0.06 (≈ 0.16 µM) | 0.25 (≈ 0.666 µM) | 1 (≈ 2.66 µM) | > 4 | – | –
8 | C[C@@H](O)[C@H]1C(=O)N2C(C(=O)O)=C(SCCNC=N)C[C@H]12 [IMIPENEM ANHYDROUS] | > 8 | > 8 | > 8 | > 8 | > 8 | > 8 | > 8 | > 8 | – | –
9 | CN[C@@H]1[C@@H](O)[C@@H](O[C@@H]2[C@@H](O)[C@H](O[C@H]3O[C@H](CN)[C@@H](O)[C@H](O)[C@H]3O)[C@@H](N)C[C@H]2NC(=O)[C@@H](O)CN)OC[C@]1(C)O [ISEPAMICIN] | – | – | – | – | – | – | – | – | 4 | 0.12 (≈ 0.211 µM)
10 | NC[C@H]1O[C@H](O[C@H]2[C@H](O)[C@@H](O[C@H]3O[C@H](CO)[C@@H](O)[C@H](N)[C@H]3O)[C@H](N)C[C@@H]2N)[C@H](O)[C@@H](O)[C@@H]1O [KANAMYCIN] | – | – | – | – | – | – | – | – | – | 0.5 (≈ 1.03 µM)
11 | C[C@H]1COc2c(N3CCN(C)CC3)c(F)cc3c(=O)c(C(=O)O)cn1c23.C[C@H]1COc2c(N3CCN(C)CC3)c(F)cc3c(=O)c(C(=O)O)cn1c23.O [LEVOFLOXACIN] | > 4 | 4 | 0.25 | > 4 | 0.25 | 0.25 | 2 | > 4 | – | –
12 | C[C@@H](O)[C@H]1C(=O)N2C(C(=O)O)=C(S[C@@H]3CN[C@H](C(=O)N(C)C)C3)[C@H](C)[C@H]12 [MEROPENEM] | > 8 | > 8 | > 8 | > 8 | > 8 | > 8 | > 8 | > 8 | – | –
13 | CCN[C@@H]1C[C@H](N)[C@@H](O[C@H]2OC(CN)=CC[C@H]2N)[C@H](O)[C@H]1O[C@H]1OC[C@](C)(O)[C@H](NC)[C@H]1O [NETILMICIN] | 8 (≈ 16.8 µM) | 16 (≈ 33.6 µM) | > 32 | > 32 | 32 (≈ 67.3 µM) | 32 (≈ 67.3 µM) | > 32 | > 32 | 4 | 0.5 (≈ 1.05 µM)
14 | CCN1CCN(C(=O)N[C@@H](C(=O)N[C@@H]2C(=O)N3[C@@H]2SC(C)(C)[C@@H]3C(=O)O)c2ccccc2)C(=O)C1=O [PIPERACILLIN] | 128 (≈ 247 µM) | > 128 | 32 (≈ 61.8 µM) | > 128 | > 128 | > 128 | > 128 | 64 (≈ 124 µM) | – | –
15 | CN[C@@H]1[C@@H](O)[C@@H](O[C@@H]2[C@@H](O)[C@H](O[C@H]3OC(CN)=CC[C@H]3N)[C@@H](N)C[C@H]2N)OC[C@]1(C)O [SISOMICIN] | – | – | – | – | – | – | – | – | 8 | ≤ 0.25
16 | CC1(C)S[C@@H]2[C@H](NC(=O)[C@H](C(=O)O)c3ccsc3)C(=O)N2[C@H]1C(=O)O [TICARCILLIN] | > 128 | > 128 | > 128 | > 128 | > 128 | > 128 | > 128 | > 128 | – | –
17 | NC[C@H]1O[C@H](O[C@H]2[C@H](O)[C@@H](O[C@H]3O[C@H](CO)[C@@H](O)[C@H](N)[C@H]3O)[C@H](N)C[C@@H]2N)[C@H](N)C[C@@H]1O [TOBRAMYCIN] | > 16 | 8 (≈ 17.1 µM) | > 16 | 16 (≈ 34.2 µM) | 16 (≈ 34.2 µM) | 16 (≈ 34.2 µM) | 16 (≈ 34.2 µM) | > 16 | 4 | 0.25 (≈ 0.535 µM)
